The subject of data set [1] is HeLaHL human cervical carcinoma tumor cells. Nature of the data set: Nude mouse xenograft study: in vivo growth of HeLaHL tumors, Compound 1 with or without fractionated ionizing radiation. The settings on record: HeLaHL xenograft in Nude mice. The procedure: The human cervical carcinoma cancer cell line, HeLaHL, carrying a human Hsp70 promoter-luciferase reporter construct, was obtained from the laboratory of Dr. Richard Morimoto (Northwestern University, Evanston, Ill., USA). The cells were cultured in Dulbecco's Modified Eagle growth media prepared with 10% fetal bovine serum (FBS), 1% 100×HEPES, 1% 100× Penicillin-Streptomycin, 1% 100×L-glutamine, 1% 100× sodium pyruvate and 1% 100×MEM non-essential amino acids. FBS was obtained from American Type Culture Collection (Manassas, Va., USA) and all other reagents were obtained from Invitrogen Corp. (Carlsbad, Calif., USA). Cells that had been cryopreserved in liquid nitrogen were rapidly thawed at 37° C. and transferred to a tissue culture flask containing growth media and then incubated at 37° C. in a 5% CO2 incubator. To expand the cell line, cultures were passaged every 3 to 4 days by washing with 10 mL of room temperature phosphate buffered saline (PBS) and then disassociating cells by adding 5 mL 1× trypsin-EDTA until the cells detached from the surface of the flask. […]
Eight week old, female homozygous Crl:CD1-Foxn1^nu/nu (Nude) mice were obtained from Charles River Laboratories (Wilmington, Mass., USA). […] Cell concentration was determined using a hemocytometer. […] Tumor volumes (V) were calculated by caliper measurement of the width (W), length (L) and thickness (T) of tumors using the following formula: V=0.5236×(L×W×T).
HeLaHL tumors were then permitted to develop in vivo until the majority reached 90-240 mm^3 in tumor volume, which required approximately 2½ weeks following implantation. […] Animals were randomized into treatment groups so that the average tumor volumes of each group were similar at the start of dosing. % T/C values, as a measure of efficacy, were determined as follows: • (i) If ΔT>0: % T/C=(ΔT/ΔC)×100 • (ii) If ΔT<0: % T/C=(ΔT/T0)×100 • (iii) ΔT=Change in average tumor volume between start of dosing and the end of study. • (iv) ΔC=Change in average tumor volume between start of dosing and the end of study. • (v) T0=Average tumor volume at start of dosing. […]

Data set [2] is described as follows: Body weight and systemic toxicity in HeLaHL tumor-bearing Nude mice of the xenograft study. The following applies: for animals removed from the study due to >20% body weight loss: 8 mice/group; for average bodyweight change relative to the start of the study: over the course of the study. The data set is classed as in vivo. The procedure:
Eight week old, female homozygous Crl:CD1-Foxn1^nu/nu (Nude) mice were obtained from Charles River Laboratories (Wilmington, Mass., USA). Animals were housed 4-5/cage in micro-isolators, with a 12 hr/12 hr light/dark cycle, acclimated for at least 1 week prior to use and fed normal laboratory chow ad libitum. Studies were conducted on animals at 10 weeks of age at implantation. To implant HeLaHL tumor cells into Nude mice, cell cultures were trypsinized as above and centrifuged to pellet the cells. The supernatant was aspirated and the cell pellet was resuspended at a concentration of 1×10^8 cells/mL in non-supplemented media. Cell concentration was determined using a hemocytometer. Using a 27 gauge needle and 1 cc syringe, 0.1 mL of the cell suspension was injected subcutaneously into the flanks of Nude mice. Tumor volumes (V) were calculated by caliper measurement of the width (W), length (L) and thickness (T) of tumors using the following formula: V=0.5236×(L×W×T).
To formulate Compound 1 in 10/18 DRD, stock solutions of Compound 1 were prepared by dissolving the appropriate amounts of the compound in dimethyl sulfoxide (DMSO) by sonication in an ultrasonic water bath. Stock solutions were prepared weekly, stored at −20° C. and diluted fresh each day for dosing. A solution of 20% Cremophor RH40 (polyoxyl 40 hydrogenated castor oil; BASF Corp., Aktiengesellschaft, Ludwigshafen, Germany) in 5% dextrose in water (D5W; Abbott Laboratories, North Chicago, Ill., USA) was also prepared by first heating 100% Cremophor RH40 at 50-60° C. until liquefied and clear, diluting 1:5 with 100% D5W, reheating again until clear and then mixing well. This solution was stored at room temperature for up to 3 months prior to use. To prepare 10/18 DRD formulations for daily dosing, DMSO stock solutions were diluted 1:10 with 20% Cremophor RH40. The final 10/18 DRD formulation for dosing contained 10% DMSO, 18% Cremophor RH40, 3.6% dextrose, 68.4% water and the appropriate amount of test article. Animals were intravenously (i.v.) injected with this formulation at 10 mL per kg body weight on one day each week (on the same day with one of the 3 weekly radiation doses) for a total of 4 doses.
Animals were irradiated using a calibrated ^137Cs gamma-ray (0.662 MeV) Model 30 Mark I irradiator (J. L. Shepherd & Associates, San Fernando, Calif., USA). Tumor-bearing animals were anesthetized for approximately 4 minutes with inhaled isoflurane (IsoFlo, Abbott Laboratories, North Chicago, Ill., USA) delivered on a stream of oxygen at 0.8 L/min and 3% volume/volume on a mobile anesthesia machine (VetEquip, Pleasanton, Calif., USA). […] Anesthetized animals were positioned in the irradiator approximately 2.5 cm in front of the ^137Cs source using a restraint device capable of holding 5 animals (J. L Shepherd & Associates). Ionizing radiation was focused on the subcutaneously implanted HeLaHL tumors through a 1 cm wide collimator (J. L. […]
The ability of Compound 1 to enhance the in vivo anti-tumor activity of ionizing radiation was investigated. Tumor-bearing animals (8 mice/group) were i.v. injected 1 time per week for a total of 4 doses (open arrowheads) with 10 mL/kg of 10/18 DRD vehicle with or without 150 mg/kg Compound 1. Animals were also irradiated 3 times per week for a total of 12 doses (closed arrowheads) with 2 Gy radiation. In the combination treatment group, animals were dosed with Compound 15 hr before being irradiated on days on which both treatments were delivered together. Each group that was not dosed with Compound 1 was instead dosed with 10/18 DRD vehicle as a mock treatment. Each group that was not irradiated was instead anesthetized and restrained as a mock irradiation. Average tumor volumes for each group were determined every 3-5 days (error bars represent +/−SEM). […]

Regarding `CC(C)c1cc(-c2nnc(O)n2-c2ccc3c(ccn3C)c2)c(O)cc1O` [Compound 1, 3-(2,4-dihydroxy-5-isopropyl-phenyl)-4-(1-methyl-indol-5-yl)-5-hydroxy-[1,2,4] triazole], the “% T/C value” in data set [1] (150 mg/kg Compound 1 alone, i.v., 1 time per week, 4 doses, 10/18 DRD, mock irradiation) is listed as 28%; in data set [1] (150 mg/kg Compound 1 i.v. 1 time per week combined with 2 Gy radiation 3 times per week (12 doses), Compound 1 dosed 5 hr before irradiation), −36%; in data set [1] (150 mg/kg Compound 1 i.v. 1 time per week combined with 3-4 Gy radiation 3 times per week (4 Gy reduced to 3 Gy on Day 40), Compound 1 dosed 5 hr before irradiation), −73%. In addition, in data set [2] (2 Gy radiation combined with 150 mg/kg Compound 1, among the animals removed from the study), the “death due to excessive body weight loss” value is on record as “One of the animals removed later died on Day 45”. Moreover, the “animals removed from the study due to >20% body weight loss” value in data set [2] (2 Gy radiation combined with 150 mg/kg Compound 1, toxicity on Day 42) is reported as 2/8; in data set [2] (4 Gy radiation combined with 150 mg/kg Compound 1, toxicity on Day 34) it was 1/8. Besides, the “average bodyweight change relative to the start of the study” value is listed as 0.4% in data set [2] (Compound 1 150 mg/kg plus 2 Gy radiation 3 times per week); 1.2% in data set [2] (Compound 1 150 mg/kg plus 3-4 Gy radiation 3 times per week); 3.2% in data set [2] (Compound 1 alone, 150 mg/kg i.v. 1 time per week).

Values taken from patent publication US20140051664A1, “COMBINATION THERAPY OF HSP90 INHIBITORY COMPOUNDS WITH RADIOTHERAPY” (SYNTA PHARMACEUTICALS CORP., priority 2011, published 2014).
